# pEC50: −log10 of the molar value. “Also recorded” adds a separate entry of the source. Read-outs that look alike come from different tables or passages of the source. Where a SMILES comes first, the peptide text is derived from it. [ ]: non-standard residue; d: D form. β3hL = CC(C)C[C@H](N)CC(=O)O; Nva = CCC[C@H](N)C(=O)O
# Experiments:
# HBV cccDNA [1] = assay: cccDNA-dependent DHBV pgRNA / cccDNA transcription in dstet5 cells; type: cell-based; conditions: for Selectivity Index (SI): CC50 divided by EC50; for EC50: in Gallus gallus, read-out: HBV cccDNA (EC50, uM); for cccDNA transcription: Dstet5 cells
# Text: Most HBV producing cells lines produce HBV gene products from an HBV transgene integrated into the host chromosome, and thus cccDNA is not the major source of viral product. This makes screening for drugs that target cccDNA difficult. Cell lines were produced in which viral gene products are dependent upon cccDNA. It was established human Hep G2 and chicken hepatoma (LMH)-stable cell lines for this purpose with tetracycline (tet) regulated HBV/DHBV. […] Upon addition of tet back to media to block transgene transcription, and removal of PFA to allow the viral DNA synthesis in the pgRNA-containing capsid to proceed, there is a rapid decline of viral RNA (day 1 and 2), with an eventual increase to a higher level when cccDNA is made after day 3.
# With a system and conditions under which viral transcripts are produced in a cccDNA dependent manner (FIGS. 1, 2B), approximately 100 compounds were screened, including those from the inventors' in-house small compound library, those present in the inventors' Natural Products collection, and selected compounds including inhibitors of cellular epigenetic modification enzymes, including HDACs, HATs, Sirtuins, histone methyltransferases, histone demethylases and DNA methyltransferases.
# Toxicity on dstet5 cells = type: cell-based, chicken; conditions: chicken; dstet5 cells; concentration that reduces 50% of cell viability
# HDAC-I = conditions: cited from earlier work; for HDAC-I inhibitor?: from cited references; for activity against class I HDACs: in words
# HDAC-II = conditions: cited from earlier work; for HDAC-II inhibitor?: from cited references
# HDAC III = conditions: cited from earlier work; for HDAC III inhibitor (printed in the HDAC-II inhibitor line): from cited references
# dstet5 cells = assay: Toxicity on dstet5 cells; type: cell-based, chicken
# HBV cccDNA [2] = assay: HBV cccDNA transcription in HepG2 cells; type: cell-based, HBV in human HepG2 cells
# [3] = test system: DHBV transgene integrated in host cellular chromosome; assay: DHBV pgRNA transcription from transgene integrated in host cellular chromosome (FIG. 4); type: cell-based
# [4] = cited from earlier work
# [5] = cited from earlier work; remark: listed apart in the source
# cccDNA = conditions: positive drug control; from our screen, Guo 2012; cited from earlier work
# DHBV = assay: Duck hepadnavirus efficacy study; type: in vivo, Peking Ducks; conditions: by 3 weeks of treatment, expected
# Text: Six-week-old Peking Ducks, chronically infected with DHBV type 16 (Alberta Strain), are used. At 6 weeks, viremia and liver mass in ducks tends to have stabilized. Ducks are given, by either i.m. or oral gavage (depending on Aim 4 PK/TK results), test compound (3 dose groups, with dosing amount and frequency to depend on PK results, but aiming to achieve stable serum levels of at least 10 times the tissue culture IC50). There are three dose groups with 5-6 animals per dose group. Control dose groups (6 animals each group) include placebo treated animals and animals treated with either barraclude (1 mg/kg) or lamivudine (40 mg/kg) per day. At least three animals from all dose groups contribute at least one pre treatment and one post treatment liver biopsy. Treatment is for 10 weeks, since this exceeds the time for lamivudine to suppress viremia to beneath detectable levels and the reported ½ life of cccDNA in the duck. Ducks are followed with weekly serum collections for an additional 4 weeks after withdrawal of drug. Serum will be collected weekly.
# Weekly serum is tested for standard “lab values” (hematology, albumin, AST, ALTs, The amount of DHBV viral DNA, sAg, sAb in the circulation is determined. Liver tissue derived from biopsies (some pre treatment and end of treatment from the same animals) is examined for DHBV DNA (cccDNA, replicative forms) and DHBV core (immunostained). […]
# WHV = assay: WHV-infected woodchuck study; type: in vivo; conditions: by 10 weeks of treatment, expected
# Text: The study uses 10 groups, with 5 animals per group, with drug treatment for 10 weeks followed by 10 weeks off drug (to test durability of affect). Due to variability in the levels of viremia and antigenemia, animals are stratified to groups by WHV viremia and antigenemia levels as determined seven days prior to study start, so that the average levels of both viral markers are evenly distributed among all groups of animals. Animals with abnormally low WHVsAg levels are not used in this study. Compound is administered daily, by a route and frequency to be finalized after bioavailability studies in rodents. The first day of dosing on the study is Study Day 1. Study Day 1 dose levels are calculated on a pretest body weight, and body weights are taken weekly for dose administration. Dosing range is as for the mouse study over four doses, with Group 10 treated with Barraclude as a reference compound (Tennant).
# The primary endpoint is a dose dependent reduction in viremia and antigenemia on and off drug achieving durable off drug reductions.
# The benchmark of positive activity is LFMAU treated animals.
# HDAC = conditions: relative to Apicidin; cited from earlier work
structure (smiles),measurement,setting,value
CN(C)c1ccc(C(=O)NCCCCCCC(=O)NO)cc1 [4-(dimethylamino)-N-[7-(hydroxyamino)-7-oxoheptyl] benzamide],Selectivity Index (SI),HBV cccDNA [1],>16
same,EC50,HBV cccDNA [1],6.25 µM
same,CC50,Toxicity on dstet5 cells,> 100 µM
same,HDAC-I inhibitor?,HDAC-I,"YES^4,7"
same,HDAC-II inhibitor?,HDAC-II,YES &
same,HDAC III inhibitor (printed in the HDAC-II inhibitor line),HDAC III,"HDAC III^7,11"
"CCC(=O)CCCCC[C@@H]1NC(=O)[C@H]2CCCCN2C(=O)[C@H]([C@@H](C)CC)NC(=O)[C@H](Cc2cn(OC)c3ccccc23)NC1=O [Apicidin, cyclo(N—O-methyl-L-tryptophanyl-L-isoleucinyl-D-pipecolinyl-L-2-amino-8-oxodecanoyl)]","activity against the DHBV, in culture",HBV cccDNA [1],highly active
same,cccDNA transcription,HBV cccDNA [1]; FIG. 3,repress
same,pEC50,"HBV cccDNA [1]; FIG. 3, read-out: inhibition of cccDNA, EC50",~6.74
same,pEC50,"HBV cccDNA [1]; dstet5 system, concentration that reduces 50% of the HBV specific signal (RNA and/or HBeAg), read-out: HBV cccDNA (EC50)",6.74
same,toxicity,dstet5 cells; at up to 20 uM for five days,no toxicity
same,CC50,"dstet5 cells; dstet5 cells, concentration that reduces 50% of cell viability",> 20 µM
same,HBV cccDNA transcription,HBV cccDNA [2],repress
same,cccDNA levels,HBV cccDNA [2],reduced
same,DHBV pgRNA transcription from transgene integrated in host cellular chromosome,[3],dose-dependently stimulate
same,HDAC-I inhibitor?,HDAC-I,"YES^4,5"
same,activity against class I HDACs,HDAC-I,nanomolar activity; also recorded: efficiently inhibits
same,aqueous solubility,[4],very poor
same,half life in vivo,[5],very poor
same,oral bioavailability,"[5]; in vivo, po",very poor
O=C(CN(c1cc(C(F)(F)F)ccc1Cl)S(=O)(=O)c1ccccc1)NCc1ccncc1 [CCC-0975],cccDNA formation,cccDNA,inhibits
Cc1cn([C@H]2O[C@@H](CO)[C@H](O)[C@H]2F)c(=O)[nH]c1=O [LFMAU],HBV viremia and antigenemia,DHBV,uniformly lost HBV viremia and even antigenemia
same,HBV viremia and antigenemia,WHV,uniformly lost HBV viremia and even antigenemia
"O=C(CCCCCCC(=O)NO)NO [Suberoyl bis hydroxamic acid (SBHA), Suberoyl bis hydroxamic acid]",Selectivity Index (SI),HBV cccDNA [1],>16
same,EC50,HBV cccDNA [1],2.5 µM
same,CC50,Toxicity on dstet5 cells,> 40 µM
same,HDAC-I inhibitor?,HDAC-I,"YES^4,6,7,10"
same,HDAC-II inhibitor?,HDAC-II,YES &
same,HDAC III inhibitor (printed in the HDAC-II inhibitor line),HDAC III,HDAC III^11
CC(/C=C/C(=O)NO)=C\[C@@H](C)C(=O)c1ccc(N(C)C)cc1 [Trichostatin A],Selectivity Index (SI),HBV cccDNA [1],>40
same,cccDNA transcription,HBV cccDNA [1]; FIG. 3,repress
same,EC50,HBV cccDNA [1],0.48 µM
same,CC50,Toxicity on dstet5 cells,> 20 µM
same,HBV cccDNA transcription,HBV cccDNA [2],repress
same,cccDNA levels,HBV cccDNA [2],reduced
same,DHBV pgRNA transcription from transgene integrated in host cellular chromosome,[3],dose-dependently stimulate
same,HDAC-I inhibitor?,HDAC-I,"YES^5,6,9"
same,activity against class I HDACs,HDAC-I,inhibited
same,HDAC-II inhibitor?,HDAC-II,"YES^4,5,6,9"
same,activity against class II HDACs,HDAC-II; in words,inhibited
same,effect on class III HDACs (sirtuins),HDAC III; in words,not affected
CCC(=O)CCCCC[C@@H]1NC(=O)Cn2cc(nn2)[C@H](C(C)CC)NC(=O)[C@H](Cc2c[nH]c3ccccc23)NC1=O (stereo partly shown) [analog 1],anti HDAC potency,HDAC,without loss of anti HDAC potency
CCC[C@@H]1NC(=O)[C@H](C)NC(=O)C[C@H](CC(C)C)NC(=O)[C@H](Cc2c[nH]c3ccccc23)NC1=O [analog 2] (cyclo(A[Nva]W[β3hL])),anti HDAC potency,HDAC,without loss of anti HDAC potency
